This is an account of results in patent US11820755B2, “Uracil compound and use thereof” (Sumitomo Chemical Company, Limited, priority 2018, dated 2023).

Assay [1] has as its system wheat leaf stripe fungi (Septoria tritici). Put plainly: Titer plate growth test of wheat leaf stripe fungi in potato broth medium (absorbance at 600 nm). Type of assay: cell-based. Particulars: cultured at 18° C. for 4 days. How it is done:
Each 1 μL of a solution containing the compound A at a predetermined concentration in dimethylsulfoxide was dispensed into a titer plate (96 wells), and then each 150 μL of potato broth medium containing suspension of spore of wheat leaf stripe fungi (Septoria tritici) was dispensed so that the concentration of the compound A was finally 4.7 ppm. The plate was cultured at 18° C. for 4 days, thereby allowing the wheat leaf stripe fungi to undergo proliferation, and the absorbance at 600 nm of each well of the titer plate was then measured to determine a degree of growth of the wheat leaf stripe fungi. The efficacy was calculated from the determined degree of growth by the below-mentioned “Equation 1”. Efficacy (%)=100×(X−Y)/X “Equation 1” wherein • X: Degree of fungal growth in non-treated area • Y: Degree of fungal growth in treated area The “Non-treated area” represents an area where a similar treatment procedure to that of the treated area except for not using the compound A is done. Each 1 μL of a solution containing the compound A at a predetermined concentration in dimethylsulfoxide was dispensed into a titer plate (96 wells), and then each 150 μL of potato broth medium containing suspension of spore of wheat leaf stripe fungi was dispensed so that the concentration of the compound A was finally 1.2 ppm. The plate was cultured at 18° C. for 4 days, thereby allowing the wheat leaf stripe fungi to undergo proliferation, and the absorbance at 600 nm of each well of the titer plate was then measured to determine a degree of growth of the wheat leaf stripe fungi. The efficacy was calculated from the determined degree of growth by the below-mentioned “Equation 1”. As a result, the efficacy was 53%. The test was carried out according to Test Example 1 using the compound B instead of the compound A. As a result, the efficacy was 45%. The test was carried out according to Test Example 2 using the compound B instead of the compound A. As a result, the efficacy was 12%.

Assay [2] relates to barley scald fungi (Rhynchosporium secalis). Kind of assay: Titer plate growth test of barley scald fungi in potato broth medium (absorbance at 600 nm). Type of assay: cell-based. Particulars: 4.7 ppm, cultured at 18° C. for 7 days. As to the method:
Each 1 μL of a solution containing the compound A at a predetermined concentration in dimethylsulfoxide was dispensed into a titer plate (96 wells), and then each 150 μL of potato broth medium containing suspension of spore of wheat leaf stripe fungi (Septoria tritici) was dispensed so that the concentration of the compound A was finally 4.7 ppm. The plate was cultured at 18° C. for 4 days, thereby allowing the wheat leaf stripe fungi to undergo proliferation, and the absorbance at 600 nm of each well of the titer plate was then measured to determine a degree of growth of the wheat leaf stripe fungi. The efficacy was calculated from the determined degree of growth by the below-mentioned “Equation 1”. Efficacy (%)=100×(X−Y)/X “Equation 1” wherein • X: Degree of fungal growth in non-treated area • Y: Degree of fungal growth in treated area The “Non-treated area” represents an area where a similar treatment procedure to that of the treated area except for not using the compound A is done. […] The plate was cultured at 18° C. for 7 days, thereby allowing the barley scald fungi to undergo proliferation, and the absorbance at 600 nm of each well of the titer plate was then measured to determine a degree of growth of the barley scald fungi. The efficacy was calculated from the determined degree of growth by the below-mentioned “Equation 1”. […]

[3] abbreviates: 1.2 ppm, wheat leaf stripe fungi.

On to `CCOc1ncccc1Oc1cc(-n2c(=O)cc(C(F)(F)F)n(C)c2=O)c(F)cc1Cl` [Compound A], for which the “Efficacy (%)” value in assay [1] (setting [3]) amounted to 53%; in assay [1] (4.7 ppm, Septoria tritici), 73%; in assay [2], 94%.
For `COc1ncccc1Oc1cc(-n2c(=O)cc(C(F)(F)F)n(C)c2=O)c(F)cc1Cl` [Compound B], the “Efficacy (%)” value in assay [1] (setting [3]) was 12%; in assay [1] (4.7 ppm, Septoria tritici), 45%; in assay [2], 41%.
